From PubChem BioAssay AID330 (DTP/NCI, 2004)
Values joined by “and” are separate entries in the source; they are usually repeats but may differ in a detail not shown here. Equal entries are not always repeated. Inconclusive results and toxic doses are left out. Peptide text beside a SMILES is read from it.

Tested on: P388 leukemia ip, CD2F1 mice, survival T/C
Test: NCI In Vivo Anticancer Drug Screen. Data for tumor model P388 Leukemia (intraperitoneal) in CD2F1 (CDF1) mice
Settings: endpoint: median survival time, higher = longer survival
In short: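 Mice carrying the transplanted tumor received test compound or vehicle. Survival was recorded in each group, and the value is the treated-group measurement divided by that of the vehicle-treated control group.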

[1] = dose: 50.0 mg/kg/injection, schedule: Q01DX005 (ip), vehicle: saline
[2] = dose: 50.0 mg/kg/injection, schedule: Q01DX005 (ip), vehicle: saline with Tween-80
[3] = dose: 100.0 mg/kg/injection, schedule: Q01DX005 (ip), vehicle: saline with Tween-80
[4] = dose: 200.0 mg/kg/injection, schedule: Q01DX005 (ip), vehicle: saline with Tween-80
[5] = dose: 100.0 mg/kg/injection, schedule: Q04DX002 (ip), vehicle: Klucel (hydroxypropylcellulose) (HPC)
[6] = dose: 200.0 mg/kg/injection, schedule: Q04DX002 (ip), vehicle: Klucel (hydroxypropylcellulose) (HPC)
[7] = dose: 400.0 mg/kg/injection, schedule: Q04DX002 (ip), vehicle: Klucel (hydroxypropylcellulose) (HPC)
[8] = dose: 50.0 mg/kg/injection, schedule: Q01DX009 (ip), vehicle: saline
[9] = dose: 100.0 mg/kg/injection, schedule: Q01DX009 (ip), vehicle: saline
[10] = dose: 200.0 mg/kg/injection, schedule: Q01DX009 (ip), vehicle: saline
[11] = dose: 100.0 mg/kg/injection, schedule: Q01DX005 (ip), vehicle: saline
[12] = dose: 200.0 mg/kg/injection, schedule: Q01DX005 (ip), vehicle: saline
[13] = dose: 25.0 mg/kg/injection, schedule: Q01DX009 (ip), vehicle: saline with Tween-80
[14] = dose: 50.0 mg/kg/injection, schedule: Q01DX009 (ip), vehicle: saline with Tween-80
[15] = dose: 100.0 mg/kg/injection, schedule: Q01DX009 (ip), vehicle: saline with Tween-80
[16] = dose: 200.0 mg/kg/injection, schedule: Q01DX009 (ip), vehicle: saline with Tween-80

For `CCOC1CC(C)(O)Cc2cc3c(c(O)c21)C(=O)c1c(O)cc2c(c1C3=O)OC1OC2(C)C(O)C(N(C)C)C1O` (stereo not given), the T/C (dose: 2.5 mg/kg/injection, schedule: Q01DX009 (ip), vehicle: other) was 150 % of control and 156 % of control, the T/C (dose: 3.25 mg/kg/injection, schedule: Q01DX009 (ip), vehicle: other) was 151 % of control and the T/C (dose: 5.0 mg/kg/injection, schedule: Q01DX009 (ip), vehicle: other) was 166 % of control and 207 % of control. The T/C (dose: 6.5 mg/kg/injection, schedule: Q01DX009 (ip), vehicle: other) was 163 % of control, the T/C (dose: 10.0 mg/kg/injection, schedule: Q01DX009 (ip), vehicle: other) was 178 % of control and 205 % of control and the T/C (dose: 13.0 mg/kg/injection, schedule: Q01DX009 (ip), vehicle: other) was 93 % of control. The T/C (dose: 20.0 mg/kg/injection, schedule: Q01DX009 (ip), vehicle: other) was 87 % of control.
With `CCN(CC)CCCNc1ccc(C)c2sc3ccccc3c(=O)c12` the T/C (dose: 12.5 mg/kg/injection, schedule: Q01DX005 (ip), vehicle: saline) was 100 % of control, the T/C (dose: 25.0 mg/kg/injection, schedule: Q01DX005 (ip), vehicle: saline) was 109 % of control and the T/C [1] was 99 % of control and 114 % of control.
`COc1ccc(C2CCC[C@H](CCc3ccc(O)cc3)O2)cc1` (stereo not given in full) was tested, and the T/C [2] was 97 % of control, the T/C [3] was 114 % of control and the T/C [4] was 109 % of control.
In the case of `CC1C(=O)SCC1(O)c1ccccc1` (stereo not given), the T/C [5] is reported as 102 % of control, the T/C [6] is reported as 103 % of control and the T/C [7] is reported as 107 % of control.
With `Nc1nc(N)c(-c2ccc(Cl)cc2)c(COc2ccc(NC(=O)c3ccc(NC(=O)CCl)cc3)cc2)n1` the T/C (dose: 25.0 mg/kg/injection, schedule: Q01DX001 (ip), vehicle: saline) was 104 % of control, the T/C (dose: 50.0 mg/kg/injection, schedule: Q01DX001 (ip), vehicle: saline) was 107 % of control and the T/C (dose: 100.0 mg/kg/injection, schedule: Q01DX001 (ip), vehicle: saline) was 114 % of control.
With `CC(C)N=C(C1=C(O)c2ccccc2C1=O)c1ccccc1` the T/C (dose: 25.0 mg/kg/injection, schedule: Q04DX002 (ip), vehicle: saline with Tween-80) was 100 % of control, the T/C (dose: 50.0 mg/kg/injection, schedule: Q04DX002 (ip), vehicle: saline with Tween-80) was 104 % of control and the T/C (dose: 100.0 mg/kg/injection, schedule: Q04DX002 (ip), vehicle: saline with Tween-80) was 100 % of control.
`O=C(O)/C(=C/c1ccc([N+](=O)[O-])cc1)c1ccccc1` was tested, and the T/C (dose: 50.0 mg/kg/injection, schedule: Q01DX005 (ip), vehicle: Klucel (hydroxypropylcellulose) (HPC)) was 102 % of control, the T/C (dose: 100.0 mg/kg/injection, schedule: Q01DX005 (ip), vehicle: Klucel (hydroxypropylcellulose) (HPC)) was 95 % of control and the T/C (dose: 200.0 mg/kg/injection, schedule: Q01DX005 (ip), vehicle: Klucel (hydroxypropylcellulose) (HPC)) was 102 % of control.
With `O=S(=O)(O)CCCCS(=O)(=O)O` the T/C [8] was 99 % of control, the T/C [9] was 108 % of control and the T/C [10] was 110 % of control.
For `COC(=O)/C=C1\C2OC(C1C(=O)OC)C1OC(C)(C)OC21` (stereo not given), the T/C [2] was 99 % of control, the T/C [3] was 103 % of control and the T/C [4] was 96 % of control.
`CC(=O)OC[C@]12CCC(C)=CC1O[C@@H]1C(OC(C)=O)[C@@H](O)[C@@]2(C)[C@]12CO2` (stereo not given in full) was tested, and the T/C (dose: 0.5 mg/kg/injection, schedule: Q01DX009 (ip), vehicle: saline) was 116 % of control and the T/C (dose: 4.0 mg/kg/injection, schedule: Q01DX009 (ip), vehicle: saline) was 165 % of control.
For `O=C1c2ccccc2CC12OC2c1ccncc1` (stereo not given), the T/C [5] was 104 % of control, the T/C [6] was 100 % of control and the T/C [7] was 106 % of control.
`CN(C)CCCC#N` was tested, and the T/C (dose: 25.0 mg/kg/injection, schedule: Q04DX003 (ip), vehicle: saline) was 100 % of control, the T/C (dose: 50.0 mg/kg/injection, schedule: Q04DX003 (ip), vehicle: saline) was 100 % of control and the T/C (dose: 100.0 mg/kg/injection, schedule: Q04DX003 (ip), vehicle: saline) was 100 % of control.
In the case of `O=c1nc(-c2ccccc2)cc(CCc2ccccc2)[nH]1`, the T/C [2] is reported as 90 % of control, the T/C [3] is reported as 89 % of control and the T/C [4] is reported as 102 % of control.
For `CC(N)C(=O)NC(Cc1ccc(O)cc1)C(=O)NC(Cc1ccccc1)C(N)=O` (stereo not drawn) (H-Ala-Tyr-Phe-NH2; configuration not given here), the T/C [1] was 102 % of control, the T/C [11] was 101 % of control and the T/C [12] was 101 % of control.
With `C[n+]1ccc(C[n+]2ccccc2)c2ccccc21` the T/C [1] was 104 % of control, the T/C [11] was 100 % of control and the T/C [12] was 96 % of control.
`O=C(CCCCl)Oc1ccccc1` was tested, and the T/C (dose: 100.0 mg/kg/injection, schedule: Q04DX003 (ip), vehicle: saline with Tween-80) was 100 % of control, the T/C (dose: 200.0 mg/kg/injection, schedule: Q04DX003 (ip), vehicle: saline with Tween-80) was 109 % of control and the T/C (dose: 400.0 mg/kg/injection, schedule: Q04DX003 (ip), vehicle: saline with Tween-80) was 104 % of control.
`CC(=O)OCc1ccc(/C=c2/[nH]c(=O)/c(=C\c3ccc(COC(C)=O)o3)[nH]c2=O)o1` was tested, and the T/C (dose: 12.5 mg/kg/injection, schedule: Q01DX009 (ip), vehicle: distilled water + Tween-80) was 88 % of control, the T/C (dose: 25.0 mg/kg/injection, schedule: Q01DX009 (ip), vehicle: distilled water + Tween-80) was 90 % of control and the T/C (dose: 50.0 mg/kg/injection, schedule: Q01DX009 (ip), vehicle: distilled water + Tween-80) was 96 % of control. For the same compound, the T/C (dose: 100.0 mg/kg/injection, schedule: Q01DX009 (ip), vehicle: distilled water + Tween-80) was 114 % of control and the T/C (dose: 200.0 mg/kg/injection, schedule: Q01DX009 (ip), vehicle: distilled water + Tween-80) was 99 % of control.
`CC1N/C(=C/c2ccccc2)C(=O)O1` (stereo not given) was tested, and the T/C [13] was 106 % of control, the T/C [14] was 110 % of control and the T/C [15] was 105 % of control and 123 % of control. For the same compound, the T/C [16] was 117 % of control and 96 % of control.
With `CC(C)(Cc1nc2ccccc2[nH]1)Cc1nc2ccccc2[nH]1` the T/C (dose: 7.5 mg/kg/injection, schedule: Q01DX005 (ip), vehicle: Klucel (hydroxypropylcellulose) (HPC)) was 99 % of control, the T/C (dose: 15.0 mg/kg/injection, schedule: Q01DX005 (ip), vehicle: Klucel (hydroxypropylcellulose) (HPC)) was 94 % of control and the T/C (dose: 30.0 mg/kg/injection, schedule: Q01DX005 (ip), vehicle: Klucel (hydroxypropylcellulose) (HPC)) was 91 % of control. For the same compound, the T/C (dose: 60.0 mg/kg/injection, schedule: Q01DX005 (ip), vehicle: Klucel (hydroxypropylcellulose) (HPC)) was 90 % of control.
In the case of `CN(C)CC(CN(C)C)C(=O)c1ccc2c(c1)OCO2`, the T/C (dose: 15.0 mg/kg/injection, schedule: Q01DX005 (ip), vehicle: saline) is reported as 122 % of control, the T/C (dose: 30.0 mg/kg/injection, schedule: Q01DX005 (ip), vehicle: saline) is reported as 117 % of control and the T/C (dose: 60.0 mg/kg/injection, schedule: Q01DX005 (ip), vehicle: saline) is reported as 119 % of control.
`CCOC(=O)C(C)(C(=O)c1ccccc1)C(=O)C(C)(C)C` (stereo not given) was tested, and the T/C (dose: 75.0 mg/kg/injection, schedule: Q01DX009 (ip), vehicle: saline with Tween-80) was 107 % of control, the T/C (dose: 150.0 mg/kg/injection, schedule: Q01DX009 (ip), vehicle: saline with Tween-80) was 103 % of control and the T/C (dose: 300.0 mg/kg/injection, schedule: Q01DX009 (ip), vehicle: saline with Tween-80) was 115 % of control.
`COc1c(Cl)cc(Cl)cc1C(=O)NO` was tested, and the T/C [2] was 97 % of control, the T/C [3] was 106 % of control and the T/C [4] was 112 % of control.
For `CCN(CC)CCN(Cc1ccccc1)C(=O)C1c2ccccc2Oc2ccccc21`, the T/C [2] was 102 % of control and the T/C [3] was 105 % of control.
With `CC(=O)NC1C(OC(C)=O)OC(CS[As](C)C)C(OC(C)=O)C1OC(C)=O` (stereo not given) the T/C [13] was 118 % of control and the T/C [14] was 111 % of control.
In the case of `O=C(OCc1ccccc1)C(Cc1ccccc1)NC(=O)C(Cc1ccc(O)cc1)N(C(=O)OCc1ccccc1)C(=O)OCc1ccccc1` (stereo not given), the T/C [2] is reported as 103 % of control, the T/C [3] is reported as 100 % of control and the T/C [4] is reported as 91 % of control.
With `CC1(CCl)Nc2ccccc2C(=O)N1c1ccc(Cl)cc1` (stereo not given) the T/C [14] was 94 % of control, the T/C [15] was 95 % of control and the T/C [16] was 89 % of control.
With `CCOC(=O)C1(O)CC2(CCC(OCc3ccccc3)CC2)C(=O)O1` (stereo not given) the T/C [8] was 102 % of control, the T/C [9] was 100 % of control and the T/C [10] was 98 % of control.
`O=C(O)C1[N-]CCNC1C(=O)O.[O]=[V][OH]` (stereo not given) was tested, and the T/C [8] was 91 % of control.
In the case of `COC(=O)CC/C=N/NC(N)=O`, the T/C [8] is reported as 96 % of control, the T/C [9] is reported as 114 % of control and the T/C [10] is reported as 114 % of control.
